# ChEMBL document CHEMBL3045229, “Molluscicidal and insecticidal potential of monoterpenes on the white garden snail, Theba pisana (Muller) and the cotton leafworm, Spodoptera littoralis (Boisduval)” (2010)
# Calls of active or inactive are those of the source. The rule behind the calls is not given here.
# Columns and labels:
# Type in all cases: functional
# [1] = test system: Spodoptera littoralis; assay: Fumigant insecticidal activity against cotton leafworm Spodoptera littoralis third-instar larvae fed on fresh castor bean leaves assessed as insect mortality after 24 hr
# [2] = test system: Theba pisana; assay: Fumigant molluscicidal activity against Theba pisana (white garden snail) assessed as snail mortality after 24 hr
# [3] = test system: Spodoptera littoralis; assay: Contact insecticidal activity against cotton leafworm Spodoptera littoralis third-instar larvae exposed to 1 mg/larva compound application through dorsum of larvae followed by feeding on fresh castor bean leaves assessed as insect mortality after 24 hr; settings: for Activity: Skin of body
# [4] = test system: Theba pisana; assay: Contact molluscicidal activity against Theba pisana (white garden snail ) exposed to compound throgh application to surface of snail body inside shell assessed as compound level per snail causing snail mortality after 24 hr
Structure (SMILES),LC50 [1] [µg/mL],LC50 [2] [µg/mL],Activity [3],LD50 [4] [µg],mortality [3] [%]
C=C1C2CCC(C2)C1(C)C (configuration not stated) [CAMPHENE],> 100,33.5,Active,>1000,–
CC12CCC(CC1=O)C2(C)C (configuration not stated) [CAMPHOR],5.61,7.98,Active,89.15,–
CC1(C)C(=O)[C@@]2(C)CC[C@H]1C2 [(L)-FENCHONE],2.27,2.51,Active,135.36,–
CC1CCC(C(C)C)C(O)C1 (configuration not stated) [MENTHOL],9.36,> 100,Active,99.44,–
CC12CCC(CC1)C(C)(C)O2 [EUCALYPTOL],4.34,4.17,Active,223.44,–
C=CC(=C)CCC=C(C)C [MYRCENE],> 100,3.88,Active,>1000,–
CC(C)c1ccc(C=O)cc1 [CUMINALDEHYDE],> 100,> 100,–,28.37,70
C=C(C)[C@@H]1CC=C(C)CC1 [(-)-LIMONENE],11.4,8.39,Active,60.27,–
CNC(=O)Oc1cc(C)c(SC)c(C)c1 [METHIOCARB],–,–,–,188.68,–
CC(C)=CCC/C(C)=C/CO [GERANIOL],> 100,> 100,–,42.29,76.7
C=C[C@@](C)(O)CC=C(C)C [(-)-LINALOOL],–,–,Active,–,–
C=C(C)[C@@H]1CC=C(C)C(=O)C1 [L-CARVONE],19.5,27,Active,132.18,–
